Laboratory results published in patent publication US20070224253A1, “Transdermal Delivery of Meptazinol” (Shire Pharmaceuticals Inc., priority 2005, published 2007).
Converted amounts (≈) assume the structure as drawn. “And” between values parts separate entries of the source, which are not always exact repeats. Equal values may be shown once. “Also recorded” adds a separate entry of the source. Where a name gives a salt, the structure may show the parent alone. Marks after values point to notes of the source that are not given here.

What was measured:
[1] = Yellow discoloration of the meptazinol gel on standing, effect of antioxidants; assay type: physicochemical; settings: antioxidant included in meptazinol gel; BHT 0.02-0.05%, ascorbic acid 0.05%
[2] = Transdermal permeation through human skin in Franz cell in vitro apparatus; settings: for Skin flux / permeation compared with other forms (in words): Franz cell; for Flux: individual Franz cell/donor; for Flux / Mean flux ± sd: vehicle 2% oleic acid: 2% dimethyl isosorbide: 96% propylene glycol; for Mean flux ± sd: mean over donors
[3] = Saturated solubility in potential delivery vehicle (oleic acid/dimethyl isosorbide/propylene glycol); settings: in 2% oleic acid: 2% dimethyl isosorbide: 96% propylene glycol; for solubility: 2% oleic acid: 2% dimethyl isosorbide: 96% propylene glycol, 32 °C, organic solvent or mixture, thermodynamic from solid, Solubility at 32° C.
[4] = cited from earlier work
Aqueous solubility = assay type: physicochemical; settings: aqueous solution
[5] = estimated from visual assessment only
[6] = listed as M HCl (1), hydrochloride
[7] = listed as M HCl (2), hydrochloride

O=C1O[C@H]([C@@H](O)CO)C(O)=C1O [Ascorbic acid]
Effect on yellow discoloration of the gel [1]: some reduction

CC1(C)C2CCC1(CS(=O)(=O)O)C(=O)C2.CCC1(c2cccc(O)c2)CCCCN(C)C1 (stereo not drawn) [Meptazinol camsylate]
Skin flux / permeation compared with other forms (in words) [2]: less effective in improving flux
Flux ([2]; listed as M camsylate): 78.1 ug/cm^2/h and 110.9 ug/cm^2/h and 27.3 ug/cm^2/h and 45.1 ug/cm^2/h and 204.2 ug/cm^2/h and 9.5 ug/cm^2/h
Mean flux ± sd [2]: 79.2 ± 71.2 ug/cm^2/h
Solubility at 32° C. [3, 5]: ˜250** mg/ml

CCC1(c2cccc(O)c2)CCCCN(C)C1 (stereo not drawn) [Meptazinol free base, Meptazinol]
Skin flux / permeation compared with other forms (in words) [2]: unexpectedly poor flux in comparison to the various salt forms
solubility [3, 5]: ~20 mg/mL (≈ 85.7 mM)
Plasma half-life ([4]; in vivo): 1.5 to 2.0 h
Fraction of an oral dose removed by first pass metabolism through the liver ([4]; oral): up to 98.1%
Oral bioavailability, reported mean values ([4]; oral): 4-9%
solubility (Aqueous solubility): 170 µg/mL (≈ 0.729 mM)

CCC1(c2cccc(O)c2)CCCCN(C)C1 (stereo not drawn) [Meptazinol hydrochloride, reference compound]
Skin flux / permeation compared with other forms (in words) ([2]; listed as hydrochloride, hydrochloride): more rapidly absorbed
Skin flux / permeation compared with other forms (in words) ([2]; listed as meptazinol hydrochloride, hydrochloride): much better permeant than the maleate; also recorded: higher flux rate than the camsylate; also recorded: substantially greater flux than the free base; also recorded: several times better than the meptazinol free base
Flux [2, 6]: 135.7 ug/cm^2/h and 218.0 ug/cm^2/h and 132.6 ug/cm^2/h and 197.1 ug/cm^2/h and 194.0 ug/cm^2/h and 162.5 ug/cm^2/h
Flux [2, 7]: 66.5 ug/cm^2/h and 222.6 ug/cm^2/h and 213.4 ug/cm^2/h (2×)
Mean flux ± sd [2, 6]: 173.3 ± 35.2 ug/cm^2/h
Mean flux ± sd [2, 7]: 179.0 ± 75.1 ug/cm^2/h
solubility ([3]; measured by HPLC): 78 mg/mL

Cc1c(C)c2c(c(C)c1O)CC[C@@](C)(CCC[C@H](C)CCC[C@H](C)CCCC(C)C)O2 [alpha tocopherol]
Effect on yellow discoloration of the gel [1]: did not

COc1ccc(O)c(C(C)(C)C)c1 [butylated hydroxy anisole]
Effect on yellow discoloration of the gel [1]: did not

Cc1cc(C(C)(C)C)c(O)c(C(C)(C)C)c1 [butylated hydroxy toluene]
Effect on yellow discoloration of the gel [1]: completely eliminated

Oc1cccc(O)c1O [pyrogallol]
Effect on yellow discoloration of the gel [1]: did not

Meptazinol maleate
Flux ([2]; listed as M maleate): 41.3 ug/cm^2/h and 91.3 ug/cm^2/h and 85.3 ug/cm^2/h and 93.9 ug/cm^2/h
Mean flux ± sd [2]: 78.0 ± 24.7 ug/cm^2/h
Solubility at 32° C. ([3]; measured by HPLC): 105* mg/ml

Meptazinol tosylate
Skin flux / permeation compared with other forms (in words) [2]: less effective in improving flux
Flux ([2]; listed as M tosylate): 158.8 ug/cm^2/h and 165.0 ug/cm^2/h and 90.9 ug/cm^2/h and 39.6 ug/cm^2/h and 273.7 ug/cm^2/h and 87.4 ug/cm^2/h
Mean flux ± sd [2]: 135.9 ± 82.5 ug/cm^2/h
Solubility at 32° C. [3, 5]: ˜140** mg/ml

Meptazinol trifluoroacetate
Skin flux / permeation compared with other forms (in words) [2]: more rapidly absorbed
Flux ([2]; listed as M TFA): 29.1 ug/cm^2/h and 422.2 ug/cm^2/h and 163.8 ug/cm^2/h and 282.3 ug/cm^2/h
Mean flux ± sd [2]: 224.4 ± 167.6 ug/cm^2/h
Solubility at 32° C. ([3]; measured by HPLC): 170* mg/ml
